# Experimental data as given in ChEMBL document CHEMBL3885861, “Open TG-GATES”.
# Species on record: Rattus norvegicus
# Assay: Open TG-GATES - Regimen: Single
# Format: toxicity, organism-based, Sprague-Dawley
# Design: regimen Single, gender Male, age 6 weeks
# Conditions: in vivo, po, 250 mg/kg, route gavage, dose level High; for APTT / Bas / Eos / Fbg / Hb / Ht / Lym / MCH / MCHC / MCV / Mono / Neu / PT / Plat / RBC / Ret / WBC: tissue Blood; for KIDNEY_L / KIDNEY_R / KIDNEY_TOTAL: tissue Kidney; for LIVER: tissue Liver; for A/G / ALP / ALT / AST / BUN / CRE / Ca / Cl / DBIL / GLC / IP / K / LDH / Na / PL / RALB / TBIL / TC / TG / TP / gamma-GTP: tissue Plasma
smiles,measurement,setting,value
CCSCC[C@H](N)C(=O)O [ETHIONINE],TERMINAL_BW,3 h,215.1 g
same,APTT,3 h,18.5 s
same,Bas,3 h,0%
same,Eos,3 h,1%
same,Fbg,3 h,205.8 mg/dL
same,Hb,3 h,13.6 g/dL
same,Ht,3 h,40%
same,Lym,3 h,74%
same,MCH,3 h,21.4 pg
same,MCHC,3 h,34%
same,MCV,3 h,62.9 fL
same,Mono,3 h,2.6%
same,Neu,3 h,20.6%
same,PT,3 h,12.5 s
same,Plat,3 h,117.7 x10_4/uL
same,RBC,3 h,635.6 x10_4/ul
same,Ret,3 h,7%
same,WBC,3 h,90.5 x10_2/uL
same,KIDNEY_L,3 h,1 g
same,KIDNEY_R,3 h,1 g
same,KIDNEY_TOTAL,3 h,2 g
same,LIVER,3 h,9.7 g
same,A/G,3 h,1.4
same,ALP,3 h,1004.6 IU/L
same,ALT,3 h,37.6 IU/L
same,AST,3 h,68 IU/L
same,BUN,3 h,10.6 mg/dL
same,CRE,3 h,0.4 mg/dL
same,Ca,3 h,10.3 mg/dL
same,Cl,3 h,100.8 meq/L
same,DBIL,3 h,0.054 mg/dL
same,GLC,3 h,210.4 mg/dL
same,IP,3 h,9.8 mg/dL
same,K,3 h,3.8 meq/L
same,LDH,3 h,183.6 IU/L
same,Na,3 h,139.6 meq/L
same,PL,3 h,127.8 mg/dL
same,RALB,3 h,3.2 g/dL
same,TBIL,3 h,0.1 mg/dL
same,TC,3 h,71 mg/dL
same,TG,3 h,43.4 mg/dL
same,TP,3 h,5.4 g/dL
same,gamma-GTP,3 h,1.2 IU/L
same,TERMINAL_BW,6 h,215.3 g
same,APTT,6 h,19.4 s
same,Bas,6 h,0%
same,Eos,6 h,1%
same,Fbg,6 h,203.2 mg/dL
same,Hb,6 h,13 g/dL
same,Ht,6 h,38.2%
same,Lym,6 h,76%
same,MCH,6 h,21.4 pg
same,MCHC,6 h,34.1%
same,MCV,6 h,62.6 fL
same,Mono,6 h,2.8%
same,Neu,6 h,19.2%
same,PT,6 h,13.1 s
same,Plat,6 h,122.2 x10_4/uL
same,RBC,6 h,610.4 x10_4/ul
same,Ret,6 h,7.1%
same,WBC,6 h,98.9 x10_2/uL
same,KIDNEY_L,6 h,1 g
same,KIDNEY_R,6 h,1 g
same,KIDNEY_TOTAL,6 h,1.9 g
same,LIVER,6 h,9.2 g
same,A/G,6 h,1.3
same,ALP,6 h,809.2 IU/L
same,ALT,6 h,33.8 IU/L
same,AST,6 h,64.2 IU/L
same,BUN,6 h,10.4 mg/dL
same,CRE,6 h,0.4 mg/dL
same,Ca,6 h,10.2 mg/dL
same,Cl,6 h,102 meq/L
same,DBIL,6 h,0.058 mg/dL
same,GLC,6 h,198.8 mg/dL
same,IP,6 h,9.6 mg/dL
same,K,6 h,3.9 meq/L
same,LDH,6 h,213.8 IU/L
same,Na,6 h,139 meq/L
same,PL,6 h,116.6 mg/dL
same,RALB,6 h,3 g/dL
same,TBIL,6 h,0.1 mg/dL
same,TC,6 h,64.6 mg/dL
same,TG,6 h,44.4 mg/dL
same,TP,6 h,5.3 g/dL
same,gamma-GTP,6 h,1.6 IU/L
same,TERMINAL_BW,9 h,212.6 g
same,APTT,9 h,20.5 s
same,Bas,9 h,0%
same,Eos,9 h,1%
same,Fbg,9 h,214.2 mg/dL
same,Hb,9 h,13.3 g/dL
same,Ht,9 h,39.1%
same,Lym,9 h,73.6%
same,MCH,9 h,21.2 pg
same,MCHC,9 h,34.2%
same,MCV,9 h,62 fL
same,Mono,9 h,3.2%
same,Neu,9 h,21.2%
same,PT,9 h,13.3 s
same,Plat,9 h,127.2 x10_4/uL
same,RBC,9 h,630.2 x10_4/ul
same,Ret,9 h,7%
same,WBC,9 h,72.8 x10_2/uL
same,KIDNEY_L,9 h,1 g
same,KIDNEY_R,9 h,1 g
same,KIDNEY_TOTAL,9 h,2 g
same,LIVER,9 h,9 g
same,A/G,9 h,1.6
same,ALP,9 h,774 IU/L
same,ALT,9 h,29.8 IU/L
same,AST,9 h,58.4 IU/L
same,BUN,9 h,8 mg/dL
same,CRE,9 h,0.3 mg/dL
same,Ca,9 h,10.4 mg/dL
same,Cl,9 h,101.4 meq/L
same,DBIL,9 h,0.072 mg/dL
same,GLC,9 h,199 mg/dL
same,IP,9 h,9.3 mg/dL
same,K,9 h,3.6 meq/L
same,LDH,9 h,195 IU/L
same,Na,9 h,139.6 meq/L
same,PL,9 h,111.2 mg/dL
same,RALB,9 h,3.4 g/dL
same,TBIL,9 h,0.1 mg/dL
same,TC,9 h,57.2 mg/dL
same,TG,9 h,77.4 mg/dL
same,TP,9 h,5.6 g/dL
same,gamma-GTP,9 h,1.2 IU/L
same,TERMINAL_BW,24 h,221.6 g
same,APTT,24 h,22 s
same,Bas,24 h,0%
same,Eos,24 h,1%
same,Fbg,24 h,210.4 mg/dL
same,Hb,24 h,13.9 g/dL
same,Ht,24 h,41%
same,Lym,24 h,74.4%
same,MCH,24 h,21.3 pg
same,MCHC,24 h,34%
same,MCV,24 h,62.5 fL
same,Mono,24 h,5.8%
same,Neu,24 h,16.8%
same,PT,24 h,14.4 s
same,Plat,24 h,116 x10_4/uL
same,RBC,24 h,655 x10_4/ul
same,Ret,24 h,6.3%
same,WBC,24 h,94.1 x10_2/uL
same,KIDNEY_L,24 h,1 g
same,KIDNEY_R,24 h,1 g
same,KIDNEY_TOTAL,24 h,2 g
same,LIVER,24 h,10.6 g
same,A/G,24 h,1.6
same,ALP,24 h,988 IU/L
same,ALT,24 h,39 IU/L
same,AST,24 h,74.4 IU/L
same,BUN,24 h,16 mg/dL
same,CRE,24 h,0.4 mg/dL
same,Ca,24 h,10.6 mg/dL
same,Cl,24 h,101.4 meq/L
same,DBIL,24 h,0.1 mg/dL
same,GLC,24 h,198.2 mg/dL
same,IP,24 h,8.8 mg/dL
same,K,24 h,3.7 meq/L
same,LDH,24 h,211 IU/L
same,Na,24 h,140 meq/L
same,PL,24 h,122.6 mg/dL
same,RALB,24 h,3.4 g/dL
same,TBIL,24 h,0.2 mg/dL
same,TC,24 h,47.2 mg/dL
same,TG,24 h,144 mg/dL
same,TP,24 h,5.6 g/dL
same,gamma-GTP,24 h,1.2 IU/L
